Reference: PMC7594840, “Identification of histone deacetylase inhibitors with (arylidene)aminoxy scaffold active in uveal melanoma cell lines” (Journal of Enzyme Inhibition and Medicinal Chemistry, 2020)

Key:
Mel270 cells = assay: Cell cycle distribution by flow cytometry (PI), Mel270 cells; format: cell-based, human; conditions: 10 µM compound, 48 h
Method: (§1) We then investigated whether this anti-proliferative effect was due to the blockade in the G0/G1 phase of the cell cycle, as expected for SAHA[31].
(§2) Figure 8. Influence of the different compounds and DMSO solvent control on cell cycle distribution in UM 92.1 and Mel270 cells. The cells were treated with 10 µM compound for 48 h and cell cycle distribution was analysed by flow cytometry after fixation and staining with PI. The percentage of cells in each category is indicated. One representative experiment is shown.
(§3) Treatments with the compounds were performed with slight differences, according to the final use of the samples. For the cell viability assay with MTT, cells were seeded in 96-well flat-bottom plates in culture medium at 5 × 10^3 cells/well, whereas for cell cycle analysis and QRT-PCR cells were seeded in 24-well plates at 5 × 10^4 cells/well. The day after, a culture medium containing the appropriate amount of compounds or their solvent control DMSO was added, and treatments were carried out for the indicated time.
(§4) To assess the cell cycle status of treated samples, after 48 h of incubation the cells were harvested, washed twice with cold PBS, and fixed in 70% ethyl alcohol at −20 °C overnight. The day after, the samples were washed with cold PBS and incubated for 20 min with propidium iodide (PI) staining solution (50 μg/ml PI, 0.05% Triton X-100, 0.2 mg/ml RNase A in PBS) at room temperature. Flow cytometric analysis of DNA content was performed using a FACScan flow cytometer with the CellQuest software (BD Biosciences). Gating on viable cells was performed using physical parameters and 10^4 gated events were acquired. Cell cycle analysis on the gated PI distribution was performed using Modfit software.

HDAC3 = molecular target: T1, HDAC3 (Homo sapiens, UniProt O15379); assay: Microfluidic chip-based HDAC inhibition assay (Calliper off-chip mobility shift), HDAC3; format: biochemical; conditions: duplicate, 10-point dose curve, 3-fold serial dilution from 30 μM; SAHA 15-point dose curve
T1 construct: purchased BPS Bioscience
T1 sequence (O15379 whole entry): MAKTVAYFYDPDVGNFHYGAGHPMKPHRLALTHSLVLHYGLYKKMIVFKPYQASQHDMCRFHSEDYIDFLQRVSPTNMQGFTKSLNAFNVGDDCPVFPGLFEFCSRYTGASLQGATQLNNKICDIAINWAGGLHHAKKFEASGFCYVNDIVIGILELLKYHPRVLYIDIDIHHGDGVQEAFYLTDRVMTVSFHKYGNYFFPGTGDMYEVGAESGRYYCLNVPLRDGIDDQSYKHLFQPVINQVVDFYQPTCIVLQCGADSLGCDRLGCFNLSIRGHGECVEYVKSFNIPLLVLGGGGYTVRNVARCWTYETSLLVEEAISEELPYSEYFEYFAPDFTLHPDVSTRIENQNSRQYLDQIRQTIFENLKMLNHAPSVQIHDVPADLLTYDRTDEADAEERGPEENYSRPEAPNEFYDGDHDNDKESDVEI
T1 sequence (Q9Y618 395-489 partner limits assumed): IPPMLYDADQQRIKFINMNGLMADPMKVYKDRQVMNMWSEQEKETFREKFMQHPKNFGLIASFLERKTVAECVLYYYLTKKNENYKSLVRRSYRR
Source text: (§5) Test compounds were screened against human histone deacetylases (HDACs) 1, 3, 6, and 8 using the Calliper off-chip mobility shift assay technology. All HDACs were purchased from BPS Bioscience and four selective substrates were used according to the targeted isozyme. […] Buffers components, except for CR-3 (LabChip Coating Reagent 3, purchased from PerkinElmer, Product Number 760050) and Panobinostat (LBH589, purchased from ApexBio Technology)[35]^,[36] were purchased from Sigma Aldrich. […] (all purchased from Selleck Chemicals).

HDAC6 = molecular target: T2, HDAC6 (Homo sapiens, UniProt Q9UBN7); assay: Microfluidic chip-based HDAC inhibition assay (Calliper off-chip mobility shift), HDAC6; format: biochemical
T2 construct: purchased BPS Bioscience
T2 sequence (Q9UBN7 1-1215): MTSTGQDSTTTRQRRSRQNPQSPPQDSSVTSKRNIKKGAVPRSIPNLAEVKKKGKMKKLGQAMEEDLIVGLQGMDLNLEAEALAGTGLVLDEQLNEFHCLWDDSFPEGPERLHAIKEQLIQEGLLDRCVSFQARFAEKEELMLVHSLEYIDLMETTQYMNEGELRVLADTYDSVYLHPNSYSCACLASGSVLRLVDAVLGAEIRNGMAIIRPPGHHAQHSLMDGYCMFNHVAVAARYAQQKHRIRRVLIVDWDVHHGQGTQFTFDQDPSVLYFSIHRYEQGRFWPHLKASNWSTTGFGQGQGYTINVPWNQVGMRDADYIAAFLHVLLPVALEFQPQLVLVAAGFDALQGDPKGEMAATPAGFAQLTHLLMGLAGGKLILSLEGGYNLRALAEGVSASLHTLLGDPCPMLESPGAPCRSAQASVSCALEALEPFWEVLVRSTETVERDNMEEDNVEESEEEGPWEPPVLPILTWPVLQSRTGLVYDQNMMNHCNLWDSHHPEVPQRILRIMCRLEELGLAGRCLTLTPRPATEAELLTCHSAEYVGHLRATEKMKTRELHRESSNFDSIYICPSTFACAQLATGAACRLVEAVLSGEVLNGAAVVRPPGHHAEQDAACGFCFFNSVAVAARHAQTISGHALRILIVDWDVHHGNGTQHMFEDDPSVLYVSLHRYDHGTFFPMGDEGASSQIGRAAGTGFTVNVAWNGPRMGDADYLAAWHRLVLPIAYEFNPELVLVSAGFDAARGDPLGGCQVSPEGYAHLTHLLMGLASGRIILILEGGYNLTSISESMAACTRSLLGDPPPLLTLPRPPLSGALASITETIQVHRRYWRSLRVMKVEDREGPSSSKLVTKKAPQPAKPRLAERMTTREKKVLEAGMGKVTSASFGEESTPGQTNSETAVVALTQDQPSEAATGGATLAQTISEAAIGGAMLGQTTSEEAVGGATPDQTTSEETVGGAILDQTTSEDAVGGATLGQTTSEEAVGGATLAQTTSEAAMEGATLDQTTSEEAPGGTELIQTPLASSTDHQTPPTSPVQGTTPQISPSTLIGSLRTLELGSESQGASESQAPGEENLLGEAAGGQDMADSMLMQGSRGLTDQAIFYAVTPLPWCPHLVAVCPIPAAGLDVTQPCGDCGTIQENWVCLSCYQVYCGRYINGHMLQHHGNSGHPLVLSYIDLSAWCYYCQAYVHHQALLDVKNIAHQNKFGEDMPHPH
Source text: as §5

92.1 cells = assay: Cell cycle distribution by flow cytometry (PI), 92.1 cells; format: cell-based, human; conditions: 10 µM compound, 48 h
Method: as §1, §2, §3, §4

HDAC1 = molecular target: T3, HDAC1 (Homo sapiens, UniProt Q13547); assay: Microfluidic chip-based HDAC inhibition assay (Calliper off-chip mobility shift), HDAC1; format: biochemical; conditions: duplicate, 10-point dose curve, 3-fold serial dilution from 30 μM
T3 construct: purchased BPS Bioscience
T3 sequence (Q13547 whole entry): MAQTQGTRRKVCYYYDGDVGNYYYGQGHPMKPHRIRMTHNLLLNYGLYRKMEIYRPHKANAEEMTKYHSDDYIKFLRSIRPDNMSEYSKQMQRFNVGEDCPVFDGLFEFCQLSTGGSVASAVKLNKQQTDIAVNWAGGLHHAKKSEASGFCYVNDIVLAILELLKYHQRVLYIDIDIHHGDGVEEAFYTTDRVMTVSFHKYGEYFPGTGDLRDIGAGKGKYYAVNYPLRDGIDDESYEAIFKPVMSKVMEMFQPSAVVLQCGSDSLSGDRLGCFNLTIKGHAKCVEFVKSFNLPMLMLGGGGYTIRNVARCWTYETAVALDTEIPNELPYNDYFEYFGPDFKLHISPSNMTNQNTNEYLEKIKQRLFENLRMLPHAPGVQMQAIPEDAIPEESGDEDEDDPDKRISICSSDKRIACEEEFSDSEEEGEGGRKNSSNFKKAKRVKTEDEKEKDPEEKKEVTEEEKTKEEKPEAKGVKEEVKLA
Source text: as §5

O=C(CCCCO/N=C/c1cnc2ccccc2c1)NO [Compound 2f, (E)-N-hydroxy-5-(((quinolin-3-ylmethylene)amino)oxy)pentanamide]
effect on cell cycle distribution (Mel270 cells): efficiently block the cell cycle at the G0/G1 phase | IC50 (HDAC3): 40 nM | IC50 (HDAC6): 10 nM | times less active than SAHA on HDAC6 (HDAC6; compared with SAHA): 7 times | effect on cell cycle distribution (92.1 cells): efficiently block the cell cycle at the G0/G1 phase | IC50 (HDAC1): 137 nM
